For experiment [1], the system named is KB cells. Description: JC-1 mitochondrial membrane potential (MMP) assay. It is filed as cell-based, human. The settings on record: increasing concentration (0.5 IC50, IC50, 2 IC50), 48 h. The source says:
According to the predicted results of network pharmacology, compound 6e might stimulate the oxidative stress response of cancer cells. Oxidative stress reflects an imbalance between excessive production of reactive free radical and deficits in antioxidant biosystem ([Zhong et al., 2018]). Mitochondria are the main reactors that produce reactive free radicals in cells, and MMP is a key indicator of mitochondrial activity. Excessive oxidative stress can cause a decrease in MMP, which leads to the damage of mitochondrial. It is well-known that mitochondrial damage is a major trigger for the induction of cell apoptosis and necrosis ([Kharroubi et al., 2017]; [Meng et al., 2021]). Therefore, JC-1 staining was used to investigate the effect of compound 6e on the MMP (ΔΨm) of KB cells. In normal cells, JC-1 can form aggregates in healthy mitochondria, emitting red fluorescence, while in apoptotic cells, JC-1 will stay in monomers that emit green fluorescence, implying a low value of ΔΨm. Therefore, mitochondrial depolarization is manifested by a decrease in the ratio of red to green fluorescence intensity.
MMP was determined using the JC-1 mitochondria staining Kit (Aladdin, China). […] On one hand, JC-1 red and green fluorescence intensities were measured with Varioskan™ LUX Multimode Microplate Reader (Thermo Fisher Scientific, America) under the […]. […]

Experiment [2] deals with KB cells. As to the kind of experiment: Annexin V-FITC/PI dual staining apoptosis assay (flow cytometry). It is filed as cell-based, human. The procedure:
To investigate whether compound 6e could induce cell apoptosis, KB cells were treated with compound 6e in different concentrations for 48 h and the Annexin V-FITC/PI dual staining assay was carried out flow cytometry.
KB cells (5×10^5 cells/well) were seeded into six-well plates. […] Afterwards, cells were collected, washed twice with cold PBS. Then the treated cells were resuspended with 400 μL of 1X Annexin V binding buffer and mixed with 5 μL FITC and 5 μL PI (Annexin V-FITC Apoptosis Analysis Kit, Tianjing), and incubated at room temperature in the dark for 5 min. After the incubation, the samples were immediately analyzed by a Beckman Flow Cytometer.

For the compound `O=CC=C(Cl)c1cc2ccc(OCc3ccccc3)cc2oc1=O` [Compound 6e, 3-(7-(Benzyloxy)-2-oxo-2H-chromen-3-yl)-3-chloroacrylaldehyde], the “JC-1 ratio (red to green fluorescence)” value in the experiment on KB cells [1] is recorded as “significant decrease”. Further, the “apoptotic rate in the early stage (Q1-LR)” value is reported as 6.99% with KB cells [2] (0.5 IC50, 48 h); 13.11% in the experiment on KB cells [2] (2 IC50, 48 h); 6.69% with KB cells [2] (IC50, 48 h). The “late apoptotic rate (Q1-UR)” value in the experiment with KB cells [2] (0.5 IC50, 48 h) was 5.55%; with KB cells [2] (2 IC50, 48 h), 7.22%; with KB cells [2] (IC50, 48 h), 7.30%. Further, the total apoptosis rate in the experiment with KB cells [2] (0.5 IC50, 48 h) came to 12.54%; in the experiment with KB cells [2] (2 IC50, 48 h), 20.33%; in the experiment on KB cells [2] (IC50, 48 h) it was 13.99%.

(Values after publication PMC10076643, “Design, synthesis and anticancer activity studies of 3-(coumarin-3-yl)-acrolein derivatives: Evidenced by integrating network pharmacology and vitro assay” (Frontiers in Pharmacology, 2023).)
